Measurements from patent publication US9944968B2, “Control of protein glycosylation by culture medium supplementation and cell culture process parameters” (Biogen MA Inc., priority 2013, dated 2018).

Tests used:
[1] = test system: immunoadhesin-expressing CHO cells; test: Fed-batch shake flask culture of immunoadhesin-expressing CHO cells: N-glycan (HILIC-UPLC) and ProG titer; format: cell-based, Chinese hamster; conditions: for Titer: Day 14 harvest; for % afucose / % charged / % galactosylation: fed-batch shake flask; for % afucose levels: addition to fed-batch shake flask cultures
Method: FIG. 3A and FIG. 3B. Effect of hypoxanthine and guanine on the growth (FIG. 3A) and viability (FIG. 3B) of fed-batch shake flask cultures of immunoadhesin-expressing CHO cells. Copper (II) sulfate was delivered as part of the 5×-concentrated DMEM/F12 feed media at a concentration of 1 mM in the feed media. The Day 14 final concentration of CuSO4 in the culture was 0.2 mM due to 20% feeding. Hypoxanthine was delivered as a 1 mM bolus from a 200 mM stock solution on Day 6 after the temperature shift. Guanine was delivered as a 0.2 mM bolus from a 100 mM stock solution on Day 6 after the temperature shift.
FIG. 4A and FIG. 4B. Effect of copper (II) sulfate on the growth (FIG. 4A) and viability (FIG. 4B) of fed-batch shake flask cultures of immunoadhesin-expressing CHO cells. Copper (II) sulfate was delivered as part of the 5×-concentrated DMEM/F12 feed media at a concentration of 1 mM in the feed media. The Day 14 final concentration of CuSO4 in the culture was 0.2 mM, due to 20% feeding. Alternatively, copper (II) sulfate was delivered as 0.2 mM and 0.5 mM boli on Day 6 from a stock solution.
Cell culture methods: Cells were thawed and maintained as in a previous report (Kshirsagar, et al. 2012 Biotechnol Bioeng, Huang, et al. Biotechnology Progress 26(5):1400-1410 (2010)). Basal medium for thaw and passing was the same as in previous reports (Kshirsagar/Huang). Briefly, cells were thawed and maintained in 3 L shake flasks (Corning Life Sciences, Corning, N.Y.) with 1 L working volumes and were passaged every 2-3 days. For maintenance cultures the incubator was controlled at 37° C. and 5% CO2. […]
(§1) Copper (II) sulfate, hypoxanthine, guanine, glucosamine, and galactose were delivered to two different immunoadhesin-expressing CHO cell cultures either as part of the feed media or as boli from distinct stock solutions. The typical culture process is a 14-day process that consists of a growth phase from Day 0 to Day 6 at 37° C. and a protein production phase from Day 6 to Day 14 at 30° C.

[2] = test system: immunoadhesin-expressing CHO cells; test: 3 L fed-batch bioreactor culture of immunoadhesin-expressing CHO cells: N-glycan (HILIC-UPLC), TSA and ProG titer; format: cell-based, Chinese hamster
Method: FIG. 5A and FIG. 5B. […] Copper (II) sulfate was delivered as part of the 5×-concentrated DMEM/F12 feed media at a concentration of 1 mM in the feed media. The Day 14 final concentration of CuSO4 in the culture was 0.25 mM, due to 25% feeding. In the CuSO4, glucosamine, and galactose combination conditions, copper (II) sulfate was delivered as part of the 5×-concentrated DMEM/F12 feed media at a concentration of 1 mM in the feed media. The Day 14 final concentration of CuSO4 in the culture was 0.22 mM, due to 22% feeding. Glucosamine was delivered as two 10 mM boli, each on Day 6 and Day 8. Galactose was delivered as part of the 5×-concentrated DMEM/F12 feed media from Day 6-14 at a concentration of 20 g/L in the feed. The Day 14 final concentration of galactose was 2.4 g/L, due to 12% feeding from Day 6-14. In the CuSO4 and hypoxanthine condition, copper (II) sulfate and hypoxanthine were delivered as part of the 5×-concentrated DMEM/F12 feed media at a concentration of 1 mM and 3 mM, respectively, in the feed media. The Day 14 final concentrations of CuSO4 and hypoxanthine in the culture were 0.23 mM and 0.7 mM, due to 23% feeding.
Bioreactor culture conditions: Fed batch cultures were performed in 5 L glass Applikon vessels using Finesse TruBio DV controllers (Finesse Solutions, San Jose, Calif.) with an initial working volume between 2-2.5 L. Bioreactors were seeded at constant seed density of 4×10^5 cells/ml. Concentrated feed medium was delivered on days 3, 5, and every day or every other day following through harvest. Temperature was maintained at 35° C. or 36° C. and pH was controlled at 7.1+/−0.2 by the addition of either 1 M sodium carbonate or carbon dioxide. Dissolved oxygen was maintained at 30%-40% by air and oxygen sparge using a drilled hole sparger. Agitation was maintained between 200-400 RPM throughout the culture to limit total gas flow, while an overlay was maintained between 0.005 and 0.04 vvm.
(§2) Offline analysis: Samples were taken on most days and analyzed with a variety of equipment. Cell density and viability were measured using the standard technique of trypan blue exclusion using a Cedex (Roche Innovatis AG, Germany). Cell viability and growth rate of the various cultures were measured during the culture time course at specific days post-inoculation.
as §1

CHO-043 cells = test: CHO-043 fed-batch shake flask culture: N-glycan (HILIC-UPLC), sialylation and ProG titer of the expressed immunoadhesin; format: cell-based, Chinese hamster
Method: FIG. 1A and FIG. 1B. Effect of glucosamine and galactose on the growth (FIG. 1A) and viability (FIG. 1B) of fed-batch shake flask cultures. Glucosamine was delivered as two 10 mM boli, each on Day 2 and Day 4 in both the glucosamine alone condition and the glucosamine/galactose combination condition. […] The Day 14 final concentration of galactose was 6 g/L, due to 30% feeding. Cell line: The cell line used in this study produced a growth factor receptor immunoadhesin polypeptide. The cell line was constructed using DG44 adapted to grow in serum-free medium (Prentice, 2007). The cell line DUXB11 was also used in this study. Cell culture methods: Cells were thawed and maintained as in a previous report ([…] al. 2012 Biotechnol Bioeng, Huang, et al. Biotechnology Progress 26(5):1400-1410 (2010)). Basal medium for thaw and passing was the same as in previous reports ([…]). Briefly, cells were thawed and maintained in 3 L shake flasks (Corning Life Sciences, Corning, N.Y.) with 1 L working volumes and were passaged every 2-3 days. For maintenance cultures the incubator was controlled at 37° C. and 5% CO2. Offline analysis: Samples were taken on most days and analyzed with a variety of equipment. Cell density and viability were measured using the standard technique of trypan blue exclusion using a Cedex (Roche Innovatis AG, Germany). Cell viability and growth rate of the various cultures were measured during the culture time course at specific days post-inoculation. […] The typical culture process is a 14-day process that consists of a growth phase from Day 0 to Day 6 at 37° C. and a protein production phase from Day 6 to Day 14 at 30° C. [table]

CHO-602 = CHO-602 fed-batch shake flask culture: N-glycan (HILIC-UPLC), sialylation and ProG titer; format: cell-based, Chinese hamster; conditions: for % NGNA / % afucose / TSA (mol/chain): Day 12, GlcN 10 mM bolus D6, combination: plus galactose 20 g/L in feed (4 g/L final)
Method: FIG. 2A and FIG. 2B. Effect of glucosamine and galactose on the growth (FIG. 2A) and viability (FIG. 2B) of fed-batch shake flask cultures of immunoadhesin-expressing CHO cells. Glucosamine was delivered as 10 mM boli on Day 6 for the 10 mM conditions and again on Day 8 for the 20 mM condition. In the glucosamine and galactose combination conditions, galactose was delivered as part of the 5×-concentrated DMEM/F12 feed media at a concentration of 20 g/L in the feed. The Day 14 final concentration of galactose was 4 g/L, due to 20% feeding.
FIG. 6A and FIG. 6B. Effect of copper (II) sulfate and Hypoxanthine-Thymidine (HT) supplement on the growth (FIG. 6A) and viability (FIG. 6B) of immunoadhesin-expressing CHO cells in fed-batch shake flasks. […] Copper (II) sulfate, hypoxanthine, and thymidine were delivered as part of the 5×-concentrated DMEM/F12 feed media at a concentration of 1 mM, 1 mM, and 0.16 mM respectively in the feed media for the HT Low condition and 1 mM, 3 mM, and 0.5 mM respectively in the feed media for the HT High condition. The Day 14 final concentration of CuSO4, hypoxanthine, and thymidine in the culture was 0.30 mM, 0.30 mM, and 0.05 mM respectively for the HT Low condition and 0.30 mM, 1 mM, and 0.16 mM respectively for the HT High condition due to 30% feeding.
Cell culture methods: Cells were thawed and maintained as in a previous report (Kshirsagar, et al. 2012 Biotechnol Bioeng, Huang, et al. Biotechnology Progress 26(5):1400-1410 (2010)). Basal medium for thaw and passing was the same as in previous reports (Kshirsagar/Huang). Briefly, cells were thawed and maintained in 3 L shake flasks (Corning Life Sciences, Corning, N.Y.) with 1 L working volumes and were passaged every 2-3 days. For maintenance cultures the incubator was controlled at 37° C. and 5% CO2.
as §2, §1

FcγRIIIa = test: % FcγRIIIa binding of purified product relative to Enbrel innovator material; conditions: for % FcγRIIIa: Day 14 product, ProA and HIC purified, relative to Enbrel innovator material, hypoxanthine 1 mM or guanine 0.2 mM bolus D6; for levels of FcγRIIIa binding: addition to fed-batch shake flask cultures
[3] = feed supp. w/1 mM CuSO4 (0.2 mM final Day 14), Day 12
[4] = Day 14, CuSO4 1 mM in feed (0.25 mM final; 0.22 mM in combination), GlcN two 10 mM boli D6, D8, galactose 2.4 g/L final
[5] = Day 12, GlcN two 10 mM boli D2, D4, combination: plus galactose 20 g/L in feed (6 g/L final)
[6] = Day 12, GlcN two 10 mM boli D2, D4, combination: plus galactose 20 g/L in feed (6 g/L final), listed as glucosamine
[7] = ExptA, ProG, hypoxanthine 1 mM or guanine 0.2 mM bolus D6
[8] = ExptA, Day 14, hypoxanthine 1 mM or guanine 0.2 mM bolus D6
[9] = ExptB, ProG, hypoxanthine 1 mM or guanine 0.2 mM bolus D6
[10] = ExptB, Day 14, hypoxanthine 1 mM or guanine 0.2 mM bolus D6

## O=S(=O)([O-])[O-].[Cu+2] [CuSO4, copper (II) sulfate]
[1]; 0.2 mM CuSO4 D6 bolus
  Titer: 1.9 g/L
[1]; 0.2 mM CuSO4 D6 bolus, Day 12
  % afucose: 8.2%
  % charged: 42.1%
  % galactosylation: 70.3%
[1]; 0.5 mM CuSO4 D6 bolus
  Titer: 1.9 g/L
[1]; 0.5 mM CuSO4 D6 bolus, Day 12
  % afucose: 8.2%
  % charged: 42.4%
  % galactosylation: 68.5%
[1]; copper (II) sulfate alone, shake flask
  % afucose, % galactosylation, and % charged levels of N-linked glycosylation: toward values associated with a comparator polypeptide
[1]; feed supp. w/1 mM CuSO4 (0.2 mM final Day 14)
  Titer: 1.8 g/L
[1]; [3]
  % afucose: 8.4%
  % charged: 43.7%
  % galactosylation: 62.7%
[2]; [4]
  % NGNA: 0.7%
  % afucose: 7.1%
  % charged: 41.9%
  % galact.: 65.4%
  % α-gal: 0.4%
  TSA (mol/chain): 13.5 mol/chain
[2]; Day 14 harvest, CuSO4 1 mM in feed, combination with GlcN two 10 mM boli and galactose 2.4 g/L final
  Titer: 2.0 g/L

## N[C@H]1C(O)O[C@H](CO)[C@@H](O)[C@@H]1O (some centres unmarked) [GlcN, glucosamine]
CHO-043 cells; [5]
  % NGNA: 3.8%
  % afucose: 1.7%
  % α-gal: 2.4%
  TSA (mol/chain): 6.6 mol/chain
CHO-043 cells; [6]
  % α-gal: reduced
  TSA (mol/chain): 6 mol/chain
CHO-043 cells; Day 12 harvest, ProG, GlcN two 10 mM boli D2, D4, combination: plus galactose (6 g/L final)
  Titer: 1.8 g/L
CHO-602
  % NGNA: 1.3%
  % afucose: 8.9%
  TSA (mol/chain): 11.1 mol/chain
CHO-602; listed as glucosamine
  % NGNA: little effect
  % afucose: little effect
  TSA (mol/chain): reduce sialylation
CHO-602; Day 14 harvest, ProG, GlcN 10 mM bolus D6, combination: plus galactose (4 g/L final)
  Titer: 1.4 g/L

## Nc1nc2nc[nH]c2c(=O)[nH]1 [Guanine, guanine]
[1]; [7]
  Titer: 1.5 g/L
[1]; [8]
  % afucose: 10.5%
[1]; [9]
  Titer: 1.6 g/L
[1]; [10]
  % afucose: 10.2%
[1]
  % afucose levels: no change
FcγRIIIa; ExptA
  % FcγRIIIa: 92%
FcγRIIIa; ExptB
  % FcγRIIIa: 121%
FcγRIIIa
  levels of FcγRIIIa binding: within the range of a comparator polypeptide

## O=c1[nH]cnc2nc[nH]c12 [Hypoxanthine, hypoxanthine]
[1]; [7]
  Titer: 1.7 g/L
[1]; [8]
  % afucose: 9.5%
[1]; [9]
  Titer: 1.6 g/L
[1]; [10]
  % afucose: 8.3%
[1]
  % afucose levels: no change
FcγRIIIa; ExptA
  % FcγRIIIa: 85%
FcγRIIIa; ExptB
  % FcγRIIIa: 122%
FcγRIIIa
  levels of FcγRIIIa binding: within the range of a comparator polypeptide
